Measured values reported in patent US20220312768A1, “COMBINATIONS OF AGROCHEMICALS WITH METABOLIC INHIBITORS” (THE BOARD OF TRUSTEES OF THE UNIVERSITY OF ARKANSAS, priority 2021, published 2022).
Values joined by “and” are separate entries in the source; they are usually repeats but may differ in a detail not shown here. Equal values may be shown once. “Also recorded” adds a separate entry of the source.

Columns and labels:
[1] = test system: Palmer amaranth; assay: Greenhouse experiment, GST blockers added to KFD-581-01, Palmer amaranth control and biomass reduction; assay type: in vivo, Amaranthus palmi; settings: for Palmer amaranth control, relative effectiveness of treatments: 7 DAA; for Reduction in above-ground biomass compared to the untreated check / Palmer amaranth control versus KFD-581-01 applied alone: 14 DAA, higher rates + KFD-581-01 300 g ai/ha
[2] = test system: Palmer amaranth; set-up: species or system Amaranthus palmeri; settings: in vivo
[3] = all rates (17, 34, 67 g ai/ha) + KFD-581-01 300 g ai/ha

SMILES | Palmer amaranth control, relative effectiveness of treatments [1, 3] | Reduction in above-ground biomass compared to the untreated check [1] | Palmer amaranth control (%) [2] | Palmer amaranth control, relative effectiveness of treatments ([1]; two highest rates (34 and 67 g ai/ha) + KFD-581-01 300 g ai/ha) | Palmer amaranth control versus KFD-581-01 applied alone [1] | Efficacy at the highest rate versus low or mid rates ([1]; 67 g ai/ha versus 17 or 34 g ai/ha, + KFD-581-01 300 g ai/ha)
O=c1c(O)c(-c2ccc(O)c(O)c2)oc2cc(O)cc(O)c12 [quercetin] | most effective; also recorded: more effective than any rate of curcumin or NBD-CL | largest reductions in biomass | – | – | – | –
CP(=O)(O)CCC(N)C(=O)O (centres unmarked) [Glufosinate, 2-amino-4-[hydroxy(methyl)phosphoryl]butanoic acid] | – | – | 74% and 60% and 74b % and 60c % | – | – | –
O=C(O)[C@H]1O[C@@H](Oc2cc3oc(-c4ccccc4)cc(=O)c3c(O)c2O)[C@H](O)[C@@H](O)[C@@H]1O [baicalin] | – | – | – | most effective; also recorded: more effective than any rate of curcumin or NBD-CL | increased levels of Palmer amaranth control | –
O=C(O)/C=C/c1ccc(O)c(O)c1 [caffeic acid] | most effective; also recorded: more effective than any rate of curcumin or NBD-CL | – | – | – | increased levels of Palmer amaranth control | decreased efficacy at the highest rate
O=c1oc2c(O)c(O)cc3c(=O)oc4c(O)c(O)cc1c4c23 [ellagic acid] | most effective; also recorded: more effective than any rate of curcumin or NBD-CL | largest reductions in biomass | – | – | increased levels of Palmer amaranth control | –
